{"source": "patent US20090291857A1", "about": "“METHODS TO IDENTIFY INHIBITORS OF THE UNFOLDED PROTEIN RESPONSE” (THE BOARD OF TRUSTEES OF THE LELAND STANFORD JUNIOR …, priority 2006, published 2009)", "tested_on": "caspase-3", "assay": "Cleavage of caspase-3 in HT1080 cells", "format": "cell-based, human", "settings": "2.5 μM", "method": "A. Effect of irestatin 9389 on PERK and ATF6 pathways. HT1080 cells were treated with vehicle alone (lanes 1-4) or 2.5 μM irestatin 9389 (lanes 5-8) and cultured under aerobic conditions for 18 hours (N) or shifted to hypoxia for the indicated times. Protein lysates were analyzed by Western blot analysis using antisera specific for ATF6 (top), CHOP/GADD153 (middle) or actin (bottom). Arrow indicates the cleaved, transcriptionally active form of ATF6. B. Cleavage of caspase-3 in irestatin-treated cells under hypoxia. HT1080 cells were cultured in normoxia (N) or under hypoxia for 36 hours (H 36) in absence or presence of irestatin 9389 (2.5 μM). Arrows indicate proteolytically cleaved caspase-3. C. Colony formation assay. HT1080 cells were treated as in B under normoxia (N) or hypoxia for 48 hours (H 48). Cells were harvested, counted, and allowed to grow under normal culture conditions for 11-12 days. Colonies were visualized with crystal violet staining. D. Quantification of clonogenic survival assay. Values represent the mean+/−SEM from at least 4 independent experiments. E. TUNEL staining of cells treated as in C. F. Quantification of TUNEL-positive cells. Values represent the mean+/−SEM from at least 3 experiments. […] Cells were harvested at the indicated times and counted by hemocytometer. Values represent the mean calculated from triplicate experiments +/−SEM. […]"}
{"smiles": "Cc1csc(NC(=O)CSc2nc3c(c(C(F)(F)F)c2C#N)CCC3)n1", "note": "[Compound 9389]", "values": [{"measurement": "cleavage of caspase-3 under hypoxia", "setting": "36 hours of hypoxia", "value": "stimulated cleavage of caspase-3"}, {"measurement": "caspase-3 processing under normal oxygen", "setting": "normal oxygen conditions", "value": "no effect on caspase-3 processing"}]}
